From ChEMBL document CHEMBL5608200, “Design, synthesis, and evaluation of antitumor activity of 2-arylmethoxy-4-(2-fluoromethyl-biphenyl-3-ylmethoxy) benzylamine derivatives as PD-1/PD-l1 inhibitors” (Eur J Med Chem, 2024) come the findings set out here.

Data set [1] has as its target Programmed cell death protein 1/Programmed cell death 1 ligand 1 (Homo sapiens, UniProt Q9NZQ7). Briefly: Inhibition of human PD-1 to PD-L1 protein-protein interaction by homogeneous-time resolved fluorescence assay. In kind it is protein-complex assay.
Data set [2] deals with Programmed cell death protein 1/Programmed cell death 1 ligand 1 (Homo sapiens) (UniProt Q15116+Q9NZQ7). Particulars: HEK293T, dose 100.0 nM, time 30.0 min.
Data set [3] in a line: Cytotoxicity against human PBMCs at 1 to 4 uM by CCK-8 assay. In kind it is toxicity, cell-based. To be noted: pbmc, dose 1-4 µM.
Data set [4] in a line: AUC(0 to t) in Sprague-Dawley rat at 10 mg/kg, iv measured upto 48 hrs by LC-MS/MS analysis. In kind it is ADME, organism-based. To be noted: in vivo.
Data set [5] can be described thus: AUC(0 to infinity) in Sprague-Dawley rat at 10 mg/kg, iv measured upto 48 hrs by LC-MS/MS analysis. In kind it is ADME, organism-based. Particulars: in vivo.
A short description of data set [6]: Cmax in Sprague-Dawley rat at 10 mg/kg, iv measured upto 48 hrs by LC-MS/MS analysis. In kind it is ADME, organism-based. Particulars: in vivo.
A short description of data set [7]: Tmax in Sprague-Dawley rat at 10 mg/kg, iv measured upto 48 hrs by LC-MS/MS analysis. It is filed as ADME, organism-based. Particulars: in vivo.
Data set [8] can be described thus: Half-life in Sprague-Dawley rat at 10 mg/kg, iv measured upto 48 hrs by LC-MS/MS analysis. In kind it is ADME, organism-based. Particulars: in vivo.
Data set [9] can be described thus: Apparent volume of distribution in Sprague-Dawley rat at 10 mg/kg, iv measured upto 48 hrs by LC-MS/MS analysis. It is filed as ADME, organism-based. Particulars: in vivo.
Data set [10] in a line: Clearance in Sprague-Dawley rat at 10 mg/kg, iv measured upto 48 hrs by LC-MS/MS analysis. It is filed as ADME, organism-based. To be noted: in vivo.
Data set [11] in a line: AUC(0 to t) in Sprague-Dawley rat at 50 mg/kg, IG measured upto 48 hrs by LC-MS/MS analysis. In kind it is ADME, organism-based. Particulars: in vivo, po.
The nature of data set [12]: AUC(0 to infinity) in Sprague-Dawley rat at 50 mg/kg, IG measured upto 48 hrs by LC-MS/MS analysis. In kind it is ADME, organism-based. To be noted: in vivo, po.
A short description of data set [13]: Cmax in Sprague-Dawley rat at 50 mg/kg, IG measured upto 48 hrs by LC-MS/MS analysis. In kind it is ADME, organism-based. Particulars: in vivo, po.
Data set [14] can be described thus: Tmax in Sprague-Dawley rat at 50 mg/kg, IG measured upto 48 hrs by LC-MS/MS analysis. Particulars: in vivo, po. It is filed as ADME, organism-based.
Data set [15] can be described thus: Half-life in Sprague-Dawley rat at 50 mg/kg, IG measured upto 48 hrs by LC-MS/MS analysis. In kind it is ADME, organism-based. Particulars: in vivo, po.
Data set [16] in a line: Apparent volume of distribution in Sprague-Dawley rat at 50 mg/kg, IG measured upto 48 hrs by LC-MS/MS analysis. To be noted: in vivo, po. It is filed as ADME, organism-based.
Data set [17] can be described thus: Clearance in Sprague-Dawley rat at 50 mg/kg, IG measured upto 48 hrs by LC-MS/MS analysis. In kind it is ADME, organism-based. To be noted: in vivo, po.
The nature of data set [18]: Oral bioavilability in Sprague-Dawley rat at 50 mg/kg measured upto 48 hrs by LC-MS/MS analysis. In kind it is ADME, organism-based. Particulars: in vivo.
In a further data set the test system is MC-38. The experiment in a line: Antitumor activity against mouse MC38 cells expressing hPD-L1 implanted in PD-1/PD-L1 humanized C57BL/6 mouse assessed as tumor growth inhibition at 50 mg/kg, IG. In kind it is functional. Particulars: MC-38, po, read-out: TGI.

Sequence of Programmed cell death protein 1/Programmed cell death 1 ligand 1 (Q15116 whole entry): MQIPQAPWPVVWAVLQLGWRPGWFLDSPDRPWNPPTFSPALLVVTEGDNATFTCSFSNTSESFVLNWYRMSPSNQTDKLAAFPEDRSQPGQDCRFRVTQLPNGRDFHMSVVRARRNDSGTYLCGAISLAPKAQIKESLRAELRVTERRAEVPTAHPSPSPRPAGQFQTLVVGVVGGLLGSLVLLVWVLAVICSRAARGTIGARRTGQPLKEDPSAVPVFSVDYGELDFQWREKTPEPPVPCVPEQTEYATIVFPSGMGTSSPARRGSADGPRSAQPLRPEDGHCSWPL
Sequence of Programmed cell death protein 1/Programmed cell death 1 ligand 1 (Q9NZQ7 whole entry): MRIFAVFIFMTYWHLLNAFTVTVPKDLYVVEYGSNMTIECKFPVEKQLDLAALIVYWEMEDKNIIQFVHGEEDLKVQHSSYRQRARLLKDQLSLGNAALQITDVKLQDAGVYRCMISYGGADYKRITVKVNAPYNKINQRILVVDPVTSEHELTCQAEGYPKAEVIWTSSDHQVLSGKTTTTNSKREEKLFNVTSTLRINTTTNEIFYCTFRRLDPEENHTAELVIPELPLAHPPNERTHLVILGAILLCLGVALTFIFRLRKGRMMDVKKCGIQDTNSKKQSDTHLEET

Regarding `N#Cc1cccc(COc2cc(OCc3cccc(-c4ccccc4F)c3CF)ccc2CNCCO)c1`, in [1], the IC50 was 100 nM.
For the compound `N#Cc1cncc(COc2cc(OCc3cccc(-c4cc(F)ccc4F)c3CF)ccc2CNCCO)c1`, in data set [1], the IC50 worked out at 42 nM.
Same read-out and setting: next, `N#Cc1cncc(COc2cc(OCc3cccc(-c4ccccc4F)c3CF)ccc2CNCC(=O)O)c1`: 28.4 nM; `N#Cc1cncc(COc2cc(OCc3cccc(-c4ccccc4F)c3CF)ccc2CN2CCCCC2C(=O)O)c1` (stereo not drawn): 27 nM.
On the same count and under the same terms, under `N#Cc1cncc(COc2cc(OCc3cccc(-c4ccccc4F)c3CF)ccc2CN2CCC(O)C2)c1` (stereo not drawn) stands 55.8 nM.
The same measure, in the same setting: under `N#Cc1cncc(COc2cc(OCc3cccc(-c4ccccc4)c3C(F)(F)F)ccc2CN[C@@H](CO)C(=O)O)c1` stands 58.6 nM; under `N#Cc1cncc(COc2cc(OCc3cccc(-c4ccccc4)c3C(F)(F)F)ccc2CNCCO)c1`, 93.8 nM.
The compound `N#Cc1cccc(COc2cc(OCc3cccc(-c4ccccc4F)c3CF)ccc2CN2CCC[C@H]2C(=O)O)c1` came in with an IC50 in [1] of 10 nM.
Same read-out and setting: next, `N#Cc1cncc(COc2cc(OCc3cccc(-c4ccccc4F)c3CF)ccc2CN[C@@H](CO)C(=O)O)c1`: 12.7 nM.
As for `N#Cc1cncc(COc2cc(OCc3cccc(-c4ccc5c(c4)OCCO5)c3C(F)F)ccc2CN2CCC[C@H]2C(=O)O)c1`, in data set [1], the 50% inhibitory concentration (IC50) stood at 19.4 nM. Further, the inhibition in data set [2] is 21.7%.
For `N#Cc1cncc(COc2cc(OCc3cccc(-c4ccc5c(c4)OCCO5)c3CF)ccc2CN2CCC(C(=O)O)C2)c1` (stereo not drawn) the same measures were 14.9 nM and 18.4%.
In [1], `CC(=O)NCCNCc1ccc(OCc2cccc(-c3ccccc3F)c2CF)cc1OCc1cccc(C#N)c1` showed an IC50 of 100 nM.
With `N#Cc1cncc(COc2cc(OCc3cccc(-c4ccccc4F)c3CF)ccc2CN[C@H](CO)C(=O)O)c1`, the IC50 in data set [1] was 10 nM.
In [1], `CC(=O)NCCNCc1ccc(OCc2cccc(-c3ccccc3F)c2C(F)F)cc1OCc1cncc(C#N)c1` returned an IC50 of 100 nM.
Same read-out and setting: next, `CC(=O)NCCNCc1ccc(OCc2cccc(-c3ccccc3F)c2CF)cc1OCc1cncc(C#N)c1`: 31.4 nM; `N#Cc1cncc(COc2cc(OCc3cccc(-c4ccccc4F)c3C(F)F)ccc2CNCC(=O)O)c1`: 154 nM.
On to `N#Cc1cncc(COc2cc(OCc3cccc(-c4ccc5c(c4)OCCO5)c3CF)ccc2CNCCO)c1`, for which half-maximal inhibition in [1] (IC50) was put at 11.9 nM. The same compound gave an inhibition in [2] of 17.3%.
In data set [1], `CC(=O)NCCNCc1ccc(OCc2cccc(-c3cc(F)ccc3F)c2CF)cc1OCc1cncc(C#N)c1` registered an IC50 of 100 nM.
As to `CC(=O)NCCNCc1ccc(OCc2cccc(-c3ccc4c(c3)OCCO4)c2C(F)F)cc1OCc1cncc(C#N)c1`, inhibition in data set [1] was half-maximal at 17.2 nM (IC50). Also, in data set [2], the inhibition was determined as 18.4%.
`CC(=O)NCCNCc1ccc(OCc2cccc(-c3ccc4c(c3)OCCO4)c2CF)cc1OCc1cncc(C#N)c1` returned an IC50 in data set [1] of 24.9 nM.
On the same count and under the same terms, next, `CN(C)CCNCc1ccc(OCc2cccc(-c3ccc4c(c3)OCCO4)c2C(F)F)cc1OCc1cccnc1`: 100 nM; `N#Cc1cncc(COc2cc(OCc3cccc(-c4ccccc4F)c3C(F)F)ccc2CN2CCC[C@H]2C(=O)O)c1`: 120 nM.
The same measure, in the same setting: next, `N#Cc1cncc(COc2cc(OCc3cccc(-c4ccccc4F)c3CF)ccc2CNCCO)c1`: 24.9 nM.
`N#Cc1cncc(COc2cc(OCc3cccc(-c4ccccc4F)c3CF)ccc2CN2CC(C(=O)O)C2)c1` returned an IC50 in [1] of 18.8 nM. Moreover, the inhibition in data set [2] stood at 20.5%.
`N#Cc1cncc(COc2cc(OCc3cccc(-c4ccc5c(c4)OCCO5)c3CF)ccc2CNCC(=O)O)c1` came in with an IC50 in data set [1] of 100 nM.
On the same count and under the same terms, next, `N#Cc1cccc(COc2cc(OCc3cccc(-c4ccccc4F)c3C(F)F)ccc2CN[C@@H](CO)C(=O)O)c1`: 100 nM; `N#Cc1cncc(COc2cc(OCc3cccc(-c4ccc5c(c4)OCCO5)c3CF)ccc2CN2CCCCC2C(=O)O)c1` (stereo not drawn): 100 nM.
The same measure, in the same setting: next, `N#Cc1cncc(COc2cc(OCc3cccc(-c4ccccc4F)c3CF)ccc2CN2CCC(C(=O)O)C2)c1` (stereo not drawn): 25.2 nM.
Still for that read-out and setting: under `N#Cc1cccc(COc2cc(OCc3cccc(-c4ccccc4F)c3C(F)F)ccc2CNCCO)c1` stands 100 nM.
`N#Cc1cncc(COc2cc(OCc3cccc(-c4ccccc4F)c3C(F)F)ccc2CNCCO)c1` showed an IC50 in [1] of 41.9 nM.
For `N#Cc1cncc(COc2cc(OCc3cccc(-c4ccccc4F)c3CF)ccc2CN2CCC[C@H]2C(=O)O)c1`, half-maximal inhibition in [1] (IC50) was put at 6.9 nM. Moreover, the inhibition in [2] was 15.4%.
On to `N#Cc1cncc(COc2cc(OCc3cccc(-c4cc(F)ccc4F)c3CF)ccc2CN[C@@H](CO)C(=O)O)c1`, for which, in [1], the IC50 came to 20.9 nM.
With `N#Cc1cncc(COc2cc(OCc3cccc(-c4ccc5c(c4)OCCO5)c3CF)ccc2CN[C@@H](CO)C(=O)O)c1`, the IC50 in [1] was found to be 19.7 nM. Besides, the inhibition in data set [2] stood at 22%.
`N#Cc1cncc(COc2cc(OCc3cccc(-c4ccccc4F)c3C(F)F)ccc2CN[C@@H](CO)C(=O)O)c1` had an IC50 in data set [1] of 16.9 nM.
Same read-out and setting: next, `CN(C)CCNCc1ccc(OCc2cccc(-c3ccc4c(c3)OCCO4)c2C(F)F)cc1OCc1cncc(C#N)c1`: 29.5 nM.
With `N#Cc1cncc(COc2cc(OCc3cccc(-c4ccc5c(c4)OCCO5)c3C(F)F)ccc2CNCC(O)CO)c1` (stereo not drawn), 9.5 nM corresponded to half-maximal inhibition in data set [1] (IC50). Further, the inhibition in data set [2] turned out to be 17%.
On to `COc1nc(OCc2cccc(-c3ccccc3)c2C)ccc1CNCCNC(C)=O`, for which the Activity result in [3] is given as “Non-Toxic”. Also, the exposure AUC(0-t) at 48 h stood at 8600 ng·h/mL in [4] and 16800 ng·h/mL in data set [11]. Further, the AUC(0-inf) in data set [5] is 8710 ng·h/mL; in [12], 16900 ng·h/mL. The Cmax in data set [6] was found to be 3350 ng/mL; in data set [13], 5730 ng/mL. Further, the Tmax is 7.2 min in [7] and 2.1 h in [14]. Moreover, the t1/2 in [8] is 1.94 h; in data set [15] it was 3.13 h. For the same compound, the values for the Vz in data set [9] and in data set [16] were 12.46 L/kg and 56.85 L/kg, respectively. Also, the values for the CL in data set [10] and in data set [17] were 19.2 mL/min/kg and 49.2 mL/min/kg, respectively. Further, the bioavailability in [18] came out at 39.1%. In addition, the inhibition in vivo at 50 mg/kg in the data set on MC-38 was 44.6%. Also, the inhibition in [2] came out at 34.6%.
As to `OCC(O)CNCc1ccc(OCc2cccc(-c3ccc4c(c3)OCCO4)c2C(F)F)cc1OCc1cccnc1` (stereo not drawn), the IC50 in data set [1] stood at 67.5 nM.
